Assay results as given in ChEMBL document CHEMBL1127137, “3-phosphono-1-carba-1-dethiacephalosporins as antibacterial agents” (1993).
Converted amounts (≈) assume the structure as drawn.

What was measured:
Assay type in all cases: functional
[1] = tested on: Escherichia coli; assay: Antimicrobial activity against gram negative Escherichia coli (EC14) was determined
[2] = tested on: Streptococcus pneumoniae; assay: Antimicrobial activity against gram positive Streptococcus pneumoniae (PARK) was determined
[3] = tested on: Staphylococcus aureus; assay: Antimicrobial activity against gram positive Staphylococcus aureus (V41) was determined
[4] = tested on: Staphylococcus epidermidis; assay: Antimicrobial activity against gram positive Staphylococcus epidermidis (222) was determined
[5] = tested on: Staphylococcus aureus; assay: Antimicrobial activity against gram positive Staphylococcus aureus (X1.1) was determined

| Structure (SMILES) | MIC [1] | MIC [2] | MIC [3] | MIC [4] | MIC [5] |
| --- | --- | --- | --- | --- | --- |
| COP(=O)(OC)OC1=C(C(=O)[O-])N2C(=O)[C@@H](NC(=O)COc3ccccc3)[C@H]2CC1.[Na+] | 64 µg/mL | 0.5 µg/mL | 2 µg/mL | 1 µg/mL | 0.5 µg/mL |
| N[C@@H](C(=O)N[C@@H]1C(=O)N2C(C(=O)O)=C(Cl)CC[C@H]12)c1ccccc1 [LORACARBEF ANHYDROUS] | 0.05 µg/mL (≈ 0.143 µM) | 1 µg/mL (≈ 2.86 µM) | 4 µg/mL (≈ 11.4 µM) | 2 µg/mL (≈ 5.72 µM) | 2 µg/mL (≈ 5.72 µM) |
| CCOP(=O)(OCC)OC1=C(C(=O)[O-])N2C(=O)[C@@H](NC(=O)COc3ccccc3)[C@H]2CC1.[Na+] | 64 µg/mL | 0.25 µg/mL | 2 µg/mL | 1 µg/mL | 0.25 µg/mL |
| O=C(COc1ccccc1)N[C@@H]1C(=O)N2C(C(=O)O)=C(OP(=O)(O)O)CC[C@H]12 | > 128 µg/mL | > 128 µg/mL | > 128 µg/mL | > 128 µg/mL | 64 µg/mL (≈ 155 µM) |
| CCCCOP(=O)(OCCCC)OC1=C(C(=O)[O-])N2C(=O)[C@@H](NC(=O)COc3ccccc3)[C@H]2CC1.[Na+] | > 128 µg/mL | 0.03 µg/mL | 64 µg/mL | 1 µg/mL | 0.5 µg/mL |
| CC1(C)S[C@@H]2[C@H](NC(=O)COc3ccccc3)C(=O)N2[C@H]1C(=O)O [PENICILLIN V] | 128 µg/mL (≈ 365 µM) | 0.06 µg/mL (≈ 0.171 µM) | 16 µg/mL (≈ 45.7 µM) | 0.125 µg/mL (≈ 0.357 µM) | 0.06 µg/mL (≈ 0.171 µM) |
